Source: US12016864B2, “LOX enzyme inhibiting methods and compositions” (ANOVIA BIOSCIENCES, INC., priority 2021, dated 2024)

Tests used:
[1] = target: T1, Recombinant human LOXL3 (lysyl oxidase like 3) (Homo sapiens, UniProt P58215); assay: LOXL3 inhibition assay, fluorometric (cadaverine / HRP / Amplex Red); assay type: biochemical; conditions: recombinant human LOXL3 150 nM; 30 min preincubation at 37° C.; 1 mM cadaverine; read-out: Activity Range LOXL3
T1 construct: purchased R&D systems
T1 sequence (P58215 26-753): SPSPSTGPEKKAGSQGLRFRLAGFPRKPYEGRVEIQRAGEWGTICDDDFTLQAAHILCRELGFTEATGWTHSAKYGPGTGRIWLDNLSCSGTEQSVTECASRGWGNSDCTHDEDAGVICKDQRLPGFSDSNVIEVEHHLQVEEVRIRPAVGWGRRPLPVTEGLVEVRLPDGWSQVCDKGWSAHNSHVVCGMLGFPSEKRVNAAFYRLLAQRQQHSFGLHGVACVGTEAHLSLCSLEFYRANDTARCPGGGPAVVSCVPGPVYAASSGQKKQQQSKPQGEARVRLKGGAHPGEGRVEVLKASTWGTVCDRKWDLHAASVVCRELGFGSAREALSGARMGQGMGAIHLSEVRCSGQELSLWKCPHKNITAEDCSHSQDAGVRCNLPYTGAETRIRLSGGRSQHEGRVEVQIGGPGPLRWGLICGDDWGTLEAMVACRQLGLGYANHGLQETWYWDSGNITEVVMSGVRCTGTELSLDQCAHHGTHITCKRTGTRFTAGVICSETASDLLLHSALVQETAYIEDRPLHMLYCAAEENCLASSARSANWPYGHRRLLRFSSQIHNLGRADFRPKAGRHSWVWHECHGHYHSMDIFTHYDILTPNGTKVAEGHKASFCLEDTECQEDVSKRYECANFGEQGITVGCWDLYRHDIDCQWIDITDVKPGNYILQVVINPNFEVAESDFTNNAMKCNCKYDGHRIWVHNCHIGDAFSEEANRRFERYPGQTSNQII
Experimental: The ability of compounds to inhibit one or more of the lysyl oxidases LOXL2 and/or LOXL3 was determined using a fluorometric assay. This assay measures the activity of lysyl oxidases by coupling the reaction with horseradish peroxidase-catalyzed […]. The activity assay protocol uses cadaverine as substrate that releases hydrogen peroxide upon transformation by the specific LOX family enzyme present in the sample. Hydrogen peroxide is in turn detected using a red fluorescence substrate for HRP-coupled reactions (Amplex Red Enzyme Assays, Thermo Scientific Fisher). This leads to increase in fluorescence that can be easily detected at Ex/Em=540/590 nm in a fluorescence microplate reader.
Recombinant human LOXL2 (lysyl oxidase like 2) and recombinant human LOXL3 (lysyl oxidase like 3) were purchased from R&D systems and assays were performed in 1.2 M urea, 50 mM sodium borate buffer pH 8.0, and 10 mM CaCl.
5 μl of freshly prepared reaction buffer were delivered to reaction wells. Compounds were resuspended in 100% DMSO at 10 mM and delivered into buffer using acoustic technology (Echo550; nanoliter range). A 3× solution of LOXL2 or LOXL3 in reaction buffer was prepared (“enzyme solution”) and 5 μL of enzyme solution was added into the reaction wells. Buffer only was added to column 1 for no protein control. Reactions were incubated for 30 minutes at 37° C. A 3× mixture of cadaverine, Amplex Red, and HRP (“Substrate/Detection Mix) was prepared and subsequently 5 μL of the mixture added to each reaction well. Progress of reactions was monitored for 60 minutes at 37° C. using Clariostar plate reader (ex 530-12, ems 600-40). For all activity assays, pan-LOX inhibitor CCT365623 (Tang et al, 2017) and LOXL2/LOXL3 inhibitor PAT-1251 (PharmaKea) were included as standards.
For the data analysis, the slope of the linear portion of the progress curve was calculated using Clariostar software. Typical analysis interval was between 8-30 min, but varied between experiments. The background-subtracted signals (No protein wells are considered as background) were converted to % activity relative to DMSO controls. Data was analyzed using GraphPad Prism 4 with “sigmoidal dose-response (variable slope)”; 4 parameters with Hill Slope. Constraints: Bottom=Constant equal to 0. Top=Must be less than 120.

[2] = target: T2, Recombinant human LOXL2 (lysyl oxidase like 2) (Homo sapiens, UniProt Q9Y4K0); assay: LOXL2 inhibition assay, fluorometric (cadaverine / HRP / Amplex Red); assay type: biochemical; conditions: recombinant human LOXL2 130 nM; 30 min preincubation at 37° C.; 2.5 mM cadaverine; read-out: Activity Range LOXL2
T2 construct: purchased R&D systems
T2 sequence (Q9Y4K0 26-774): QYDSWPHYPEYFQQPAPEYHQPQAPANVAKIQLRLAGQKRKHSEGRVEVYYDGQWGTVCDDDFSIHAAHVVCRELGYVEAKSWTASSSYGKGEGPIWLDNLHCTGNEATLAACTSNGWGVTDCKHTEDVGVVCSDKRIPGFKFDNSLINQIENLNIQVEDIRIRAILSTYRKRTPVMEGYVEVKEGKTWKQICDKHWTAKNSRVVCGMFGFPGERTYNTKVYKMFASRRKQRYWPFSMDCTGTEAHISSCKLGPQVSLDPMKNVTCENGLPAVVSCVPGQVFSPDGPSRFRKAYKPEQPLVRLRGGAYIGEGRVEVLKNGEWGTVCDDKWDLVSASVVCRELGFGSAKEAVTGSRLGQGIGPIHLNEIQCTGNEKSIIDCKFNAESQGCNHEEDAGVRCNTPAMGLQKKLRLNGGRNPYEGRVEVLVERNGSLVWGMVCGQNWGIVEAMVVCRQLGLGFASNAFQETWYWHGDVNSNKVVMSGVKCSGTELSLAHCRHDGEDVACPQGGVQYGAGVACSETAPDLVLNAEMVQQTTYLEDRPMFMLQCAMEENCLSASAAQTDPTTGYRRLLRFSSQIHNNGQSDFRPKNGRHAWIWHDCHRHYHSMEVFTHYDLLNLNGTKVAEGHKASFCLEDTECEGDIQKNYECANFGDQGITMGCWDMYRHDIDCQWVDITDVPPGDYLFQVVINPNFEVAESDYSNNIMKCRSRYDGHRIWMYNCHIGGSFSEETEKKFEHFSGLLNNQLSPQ
Method in brief: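 Recombinant human LOXL2 or LOXL3 in 1.2 M urea, 50 mM sodium borate pH 8.0, 10 mM CaCl, preincubated with compound 30 min at 37 °C. Cadaverine substrate added; H2O2 detected by HRP/Amplex Red fluorescence, read kinetically for 60 min at 37 °C. Initial-rate slopes, background-subtracted and normalised to DMSO, fitted to a 4-parameter curve with bottom fixed at 0.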

IC50 [1] [µM]	IC50 [2] [µM]	SMILES
0.5 to 1	≤ 0.5	NCc1ccnc(OC[C@@H]2C[C@H](C3CCCCC3)CN(S(=O)(=O)N3CCS(=O)(=O)CC3)C2)c1 (racemic) [Example 235, cis-4-((3-(((4-(Aminomethyl)pyridin-2-yl)oxy)methyl)-5-cyclohexylpiperidin-1-yl)sulfonyl)thiomorpholine 1,1-dioxide 2,2,2-trifluoroacetate]
≤ 0.5	≤ 0.5	NCc1ccnc(OC[C@@H]2C[C@H](C3CCCCC3)CN2S(=O)(=O)N2CCOCC2)c1 (relative stereo) [Example 239, cis-(2-((4-Cyclohexyl-1-(morpholinosulfonyl)pyrrolidin-2-yl)methoxy)pyridin-4-yl)methanamine 2,2,2-trifluoroacetate]
≤ 0.5	≤ 0.5	NCc1ccnc(OC[C@@H]2C[C@@H](C3CCCCC3)CN2S(=O)(=O)N2CCOCC2)c1 [Example 239T, trans-(2-((4-Cyclohexyl-1-(morpholinosulfonyl)pyrrolidin-2-yl)methoxy)pyridin-4-yl)methanamine 2,2,2-trifluoroacetate]
